Results reported in patent US9861606B2, “Therapeutic for treating inflammatory lung disorders” (University College Cardiff Consultants Limited, priority 2012, dated 2018).
Entries after “also recorded” stand apart in the source; their conditions may differ.

Experiments:
human CaSR = target: T1, human CaSR (Homo sapiens, UniProt P41180); test: Intracellular Ca2+ (fura-2, F/F0) in HEK293 cells stably expressing human CaSR; format: cell-based; conditions: 100 nM calcilytic, HEK-CaSR
T1 construct: expressed in transfected cells; control HEK-0 with empty vector
T1 sequence (P41180 20-1078): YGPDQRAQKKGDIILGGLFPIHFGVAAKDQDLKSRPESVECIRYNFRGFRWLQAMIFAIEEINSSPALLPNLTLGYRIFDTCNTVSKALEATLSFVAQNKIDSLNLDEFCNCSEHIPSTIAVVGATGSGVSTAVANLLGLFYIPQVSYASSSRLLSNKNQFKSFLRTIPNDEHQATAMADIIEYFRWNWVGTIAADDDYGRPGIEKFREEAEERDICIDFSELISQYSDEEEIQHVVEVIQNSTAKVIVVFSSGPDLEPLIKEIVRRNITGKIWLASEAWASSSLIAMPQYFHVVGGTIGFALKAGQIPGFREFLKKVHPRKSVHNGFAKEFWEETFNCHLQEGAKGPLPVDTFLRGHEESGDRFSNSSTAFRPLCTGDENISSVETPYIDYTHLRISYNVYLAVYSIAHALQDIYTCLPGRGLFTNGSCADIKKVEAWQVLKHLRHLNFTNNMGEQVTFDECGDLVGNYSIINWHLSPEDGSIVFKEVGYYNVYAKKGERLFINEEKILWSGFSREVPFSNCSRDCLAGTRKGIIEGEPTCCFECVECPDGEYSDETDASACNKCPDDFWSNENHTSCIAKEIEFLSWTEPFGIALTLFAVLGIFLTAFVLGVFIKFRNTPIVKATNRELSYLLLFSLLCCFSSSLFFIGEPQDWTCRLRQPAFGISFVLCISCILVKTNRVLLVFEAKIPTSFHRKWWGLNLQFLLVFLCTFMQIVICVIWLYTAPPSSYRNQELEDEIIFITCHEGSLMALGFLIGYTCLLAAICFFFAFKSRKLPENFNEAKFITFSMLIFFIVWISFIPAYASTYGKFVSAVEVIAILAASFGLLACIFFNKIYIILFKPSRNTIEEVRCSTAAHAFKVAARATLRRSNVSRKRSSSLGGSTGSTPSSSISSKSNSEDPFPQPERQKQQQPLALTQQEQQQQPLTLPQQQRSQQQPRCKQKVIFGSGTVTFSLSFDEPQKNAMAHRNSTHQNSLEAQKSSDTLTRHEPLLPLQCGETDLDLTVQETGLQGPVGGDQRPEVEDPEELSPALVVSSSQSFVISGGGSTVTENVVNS
Description: The structurally unrelated calcilytic NPS2143 also prevents spermine-induced CaSR activation (D). […] Note that ECP serum concentrations in asthmatic subjects are believed to be 30 μg/ml. n=121-487 cells, 3-9 experiments. Data are mean±SEM. Where differences are significant, they are shown above the bars. FIG. 6. Ca^2+o activates the CaSR, an effect which can be prevented by the calcilytic NPS89636. HEK293 cells stably expressing the human CaSR (HEK-CaSR) or transfected with empty vector (HEK-0) were loaded with 4 μM fura-2 AM and exposed to 5 mM Ca^2+o in the absence or presence of the calcilytic, NPS89636 (100 nM). Data are from >3 experiments and 121-386 cells. Significant differences are shown above the bars. […] The ability of a structurally unrelated calcilytic, NPS2143 (1-10 μM), was also tested on spermine-induced Ca^2+i mobilisation in HEK-CaSR. Ca^2+i release was measured as peak/baseline fluorescence (F/F0). Note that ECP serum concentrations in asthmatic subjects increase with disease severity and are believed to reach 30 μg/ml.

[1] = test system: mouse intralobular bronchi; test: Wire myography: effect of calcilytic on ACh-precontracted mouse intralobular bronchi; conditions: 300 nM or 3 micromolar; ACh 1 micromolar precontraction; WT mice
Description: Second/third order intralobular bronchi were dissected from the lung left lobe of WT or CaSR KO mice, mounted in small vessel myograph. Bronchi were gradually stretched to reach 2 mN of passive tension. After 30 min of equilibration time, the reactivity of the bronchi was tested by addition of 40 mM KCl to the bath. […] Data are shown as mean±SEM percentage change from baseline. […] Bronchi were left to settle at 37° C. for 30 min, then gradually stretched to reach 2 mN of passive tension. After 30 min of equilibration time, the reactivity of the bronchi was tested by addition of 40 mM KCl to the bath.

BalbC mice = test: Polycation-induced bronchial hyper-reactivity (Penh, plethysmography) in methacholine-challenged conscious mice; format: in vivo, mouse; conditions: nebulised 3 μM; poly-L-arginine 3 μM; methacholine challenge
Description: FIG. 5. […] prevent polycation-evoked BHR in methacholine-challenged mice. […] After the treatment, animals were placed in plethysmography chambers (Buxco, USA), allowed to settle for 10 minutes, and then they were challenged with methacholine (MCh, 0.1-10 mg/ml). Responses to methacholine obtained from the animals that have not received any treatments are shown in black symbols. From our previous estimates, 1-5% of the nebulised drug reaches the lung epithelium. […] FIG. 12. […] Male BalbC mice ( 25 g) were purchased from Harlan 1 week before the experimental protocols were performed. […] On the day of the experiment, the body weight of each mouse was recorded and mice were allowed to acclimatise to the chamber for at least 10 min before recordings were made. Then, respiratory activity was recorded for 5 min, to establish baseline value for Penh. […] Data were recorded for 3 minutes after each aerosol administration. The Penh values at each MCh concentration were averaged and expressed as a proportion of baseline Penh (Penh before treatment). […] The Penh values at each MCh concentration were averaged and expressed as a proportion of that day's baseline Penh (Penh after treatment). […] Effect of Polycations and of the Calcilytic NPS89636 on Bronchial Hyper-Reactivity in Unrestrained, Conscious Mice In Vivo Baseline airway hyper-responsiveness was measured by plethysmography. […]

Compound: CCc1ccc(CC(C)(C)NCC(O)COc2cc(-c3ccc(C(=O)O)cc3)ccc2C#N)c(F)c1.Cl (stereo in doubt) [NPS89636, (S)-4′-cyano-3′-[3-[2-(4-ethyl-2-fluorophenyl)-1,1-dimethylethylamino]-2-hydroxy-propoxy]-biphenyl-4-carboxylic acid hydrochloride]
- Effect of calcilytic on polycation-evoked Ca2+i release (F/F0) (human CaSR; 300 nM poly-L-arginine, 1 mM spermine or 10 μg/ml ECP, hydrochloride): completely eliminated; also recorded: significantly reduced
- Effect of calcilytic on Ca2+i increase evoked by 5 mM Ca2+o (human CaSR): blocked
- Relaxation of acetylcholine-preconstricted intralobular bronchi [1]: mild relaxation
- Effect on poly-L-arginine-induced increase in airway reactivity (Penh) (BalbC mice): completely prevented
